Source: ChEMBL document CHEMBL4038286, “Synthesis of camphecene derivatives using click chemistry methodology and study of their antiviral activity” (Bioorg Med Chem Lett, 2017)

Legend:
[1] = Cytotoxicity against MDCK cells assessed as cell death by MTT assay; format: cell-based, Canis lupus familiaris; conditions: dog, read-out: CTD50
[2] = Selectivity index, ratio of CTD50 for MDCK cells to ED50 for Influenza A virus (A/Puerto Rico/8/34(H1N1)); format: toxicity; conditions: dog, read-out: Selectivity Index

| SMILES | CC50 [1] | selectivity ratio [2] |
| --- | --- | --- |
| CC1(C)[C@@H]2CC[C@@]1(C)/C(=N\CCOCc1cn(CC/N=C3\C[C@H]4CC[C@]3(C)C4(C)C)nn1)C2 | 117 µM | 1 |
| CCOP(=O)(CCCCn1cc(COCC/N=C2\C[C@H]3CC[C@]2(C)C3(C)C)nn1)OCC | > 641 µM | > 2 |
| CC(N)[C@@H]1C[C@H]2CC[C@]1(C)C2 (stereo not given in full) | 1110 µM | 6 |
| CCCCc1cn(CC/N=C2\C[C@H]3CC[C@]2(C)C3(C)C)nn1 | 303 µM | 5 |
| CC1(C)[C@@H]2CC[C@@]1(C)/C(=N/CCN=[N+]=[N-])C2 | > 1360 µM | > 3 |
| CC1(C)[C@@H]2CC[C@@]1(C)/C(=N/CCn1cc(CO)nn1)C2 | > 1090 µM | 2 |
| CC(C)(O)Cc1cn(CC/N=C2\C[C@H]3CC[C@]2(C)C3(C)C)nn1 | > 987 µM | > 31 |
| CC1(C)[C@@H]2CC[C@@]1(C)/C(=N/CCOCc1cn(-c3ccccc3)nn1)C2 | 138 µM | 2 |
| NC12CC3CC(CC(C3)C1)C2 [AMANTADINE] | 266 µM | 4 |
| C#CCOCC/N=C1\C[C@H]2CC[C@]1(C)C2(C)C | 971 µM | 2 |
| CCOC(=O)C(C)(Cc1cn(CC/N=C2\C[C@H]3CC[C@]2(C)C3(C)C)nn1)P(=O)(OCC)OCC (stereo not given in full) | > 555 µM | 2 |
| CCOP(=O)(OCC)C(Cc1cn(CC/N=C2\C[C@H]3CC[C@]2(C)C3(C)C)nn1)P(=O)(OCC)OCC | 92 µM | 2 |
| CC(C)(C)OC(=O)Cn1cc(COCC/N=C2\C[C@H]3CC[C@]2(C)C3(C)C)nn1 | 204 µM | 8 |
| CC1(C)[C@@H]2CC[C@@]1(C)/C(=N/CCn1cc([Si](C)(C)C)nn1)C2 | 32 µM | < 1 |
| CC(N)C12CC3CC(CC(C3)C1)C2 (stereo not given) [RIMANTADINE] | 344 µM | 5 |
| CC1(C)[C@@H]2CC[C@@]1(C)/C(=N/CCOCc1cn(CCO)nn1)C2 | > 938 µM | > 19 |
| COCCNCCc1cn(CC/N=C2\C[C@H]3CC[C@]2(C)C3(C)C)nn1 | 865 µM | 34 |
| CC1(C)[C@@H]2CC[C@@]1(C)/C(=N/CCn1cc(CCN3CCOCC3)nn1)C2 | > 836 µM | > 18 |
| CC1(C)[C@@H]2CC[C@@]1(C)/C(=N/CCn1cc(CCO)nn1)C2 | > 1030 µM | > 19 |
| CNCc1cn(CC/N=C2\C[C@H]3CC[C@]2(C)C3(C)C)nn1 | 195 µM | < 2 |
